Data published in patent US7951364B2, “CaR receptor as a mediator of migratory cell chemotaxis and/or chemokinesis” (The General Hospital Corporation, priority 2000, dated 2011).

Assays:
CCR-5 = settings: elevated Ca^++
Procedure: (§1) Chemokine receptor expression and flow cytometric analysis. Purified monocytes were incubated in a Ca^++-free medium supplemented with 1 mM, 3 mM or 5 mM CaCl2 or with 1.5 mM CaCl2 plus 1 μM NPS R-467 or S-467. Cells were washed once in PBS with 1% FCS and resuspended in 100 μl of Ca^++-free PBS. Monoclonal antibody against the CaR was added to the cells and incubated alone or with the CaR peptide for 30 min at room temperature. Cells were washed with PBS containing 1% FCS, resuspended in PBS with 1% FCS and incubated for 15 min at room temperature with anti-mouse IgG conjugated to FITC. The cells were washed again and conjugated monoclonal antibody [anti-CXCR4, anti-CCR5 (Pharmingen, San Diego, Calif.); anti-CCR2 (R&D, Minneapolis, Minn.); anti-CD14 (Becton Dickinson, San Jose, Calif.); or anti-CD4 (Becton Dickinson, San Jose, Calif.)] was added and incubated for 15 min at room temperature. Stained cells were fixed with 1% paraformaldehyde and assayed within 24 hrs. Flow cytometric analysis was performed using a dual laser FACSCalibur (Becton Dickinson Immunocytometry Systems, San Jose, Calif.) calibrated using 2 μm Calibrite beads (Becton Dickinson). Data acquisition and analysis were performed using CellQuest software (Becton Dickinson).

CXCR-4 = settings: elevated Ca^++
Procedure: as §1

CD4 = settings: varying Ca^++ concentration
Procedure: as §1

[1] = system: monocytes (Mac-1 positive mononuclear cells); assay: Biologic activity in vivo: subcutaneous injection, monocyte infiltration at injection site; parameters: species or system C57BL/6 mice; settings: tissue excised 18 hours later, CaCl2 5.0 mM, NPS R-467 10 μM
Procedure: Biologic activity of ionic calcium in vivo. C57BL/6 mice (Jackson Laboratories) were injected subcutaneously at a marked, shaved spot on the abdomen with 20 μl of 5 mM CaCl2 or 20 μl of MCP-1 at a concentration of 10 ng/ml, with a combination of MCP-1 and 5 mM CaCl2 or with 10 μM NPS R-467 in PBS. Control mice were injected subcutaneously with 20 μl PBS alone. All subcutaneously injected agents contained less than 0.004 ng/ml of LPS by the limulus assay (Sigma) as previously described (Bleul, C. C., et al., J Exp Med, 1996, 184:1101-1109). Mice were sacrificed by CO2 asphyxiation 18 hours after injection, and injection sites were excised, snap-frozen and 4 μm cryosections were obtained and stained with hematoxylin and eosin. Immunocytochemistry was performed on the frozen sections using alkaline phosphatase-conjugated Mac-1 antibody (Pharmingen) as previously described and assessed by light microscopy (Bleul, C. C., et al., supra).

human CD34^+ cells = assay: In vitro assays of human CD34^+ hematopoietic progenitor cells; assay type: cell-based; settings: increased Ca^2+ concentration
From the text: Calcium ions effect Hematopoietic Progenitor Cells. We also assessed the effects of calcium, through its interaction with the calcium sensing receptor (CaR) using in vitro assays of human CD34^+ cells. […] Therefore, calcium participates in maintaining candidate stem cells in a primitive, undifferentiated state. […] This was accompanied by a decrease in the level of LTC-ICs in the bone marrow, but an increase in the level of CFU-Cs, with a converse increase in hematopoietic stem cells in is the peripheral blood.

[2] = molecular target: calcium-sensing receptor (CaR) (Homo sapiens, UniProt P41180); settings: cited from earlier work
calcium-sensing receptor (CaR), sequence (P41180 20-1078): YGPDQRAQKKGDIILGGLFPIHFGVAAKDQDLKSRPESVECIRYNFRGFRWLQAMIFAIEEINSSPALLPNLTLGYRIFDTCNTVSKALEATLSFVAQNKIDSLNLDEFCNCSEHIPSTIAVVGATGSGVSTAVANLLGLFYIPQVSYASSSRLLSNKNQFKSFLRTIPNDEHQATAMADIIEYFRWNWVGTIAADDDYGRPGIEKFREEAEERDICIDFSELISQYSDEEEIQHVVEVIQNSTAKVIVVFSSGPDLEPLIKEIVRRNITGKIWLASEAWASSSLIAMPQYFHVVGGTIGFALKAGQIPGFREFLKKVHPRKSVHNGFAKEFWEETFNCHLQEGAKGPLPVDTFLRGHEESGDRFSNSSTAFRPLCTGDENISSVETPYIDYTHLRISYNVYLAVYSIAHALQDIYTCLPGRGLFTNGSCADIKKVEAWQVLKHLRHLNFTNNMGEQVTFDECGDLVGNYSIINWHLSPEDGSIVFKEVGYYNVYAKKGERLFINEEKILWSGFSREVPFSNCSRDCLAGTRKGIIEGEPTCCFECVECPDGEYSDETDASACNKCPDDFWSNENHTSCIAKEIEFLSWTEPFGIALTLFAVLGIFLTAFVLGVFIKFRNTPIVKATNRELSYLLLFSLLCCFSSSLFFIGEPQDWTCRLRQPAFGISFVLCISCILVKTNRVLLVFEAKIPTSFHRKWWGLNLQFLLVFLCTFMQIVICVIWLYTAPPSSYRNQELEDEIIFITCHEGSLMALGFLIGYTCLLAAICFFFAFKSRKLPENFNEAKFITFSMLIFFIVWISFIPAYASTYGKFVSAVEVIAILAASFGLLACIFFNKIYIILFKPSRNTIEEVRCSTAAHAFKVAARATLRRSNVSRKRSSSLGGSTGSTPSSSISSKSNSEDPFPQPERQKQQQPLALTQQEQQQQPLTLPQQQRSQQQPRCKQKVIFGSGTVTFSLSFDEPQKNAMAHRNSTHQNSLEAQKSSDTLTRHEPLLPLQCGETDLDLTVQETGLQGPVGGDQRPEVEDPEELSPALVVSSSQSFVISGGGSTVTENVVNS

## [Ca+2].[Cl-].[Cl-] [Ca^++, calcium chloride]
CCR-5
  CCR-5 median fluorescence intensity: failed to demonstrate any change
CXCR-4
  CXCR-4 expression: increased but did not achieve statistical significance
CD4
  Fluorescence intensity of anti-CD4 antibody staining: did not vary
[1]
  Accumulation of mononuclear cells staining positive for Mac-1 at injection site: Accumulation
Human CD34^+ cells; p=0.017
  Number of more mature BFU-Es: decrease
Human CD34^+ cells; p=0.037
  Level of primitive cells measured by LTC-ICs: increase
[2]
  Ca^++ concentration at which activation of the receptor is maximal: 5 mM
